The values that follow come from patent publication US12478677B2, “Tunable luminescent organic salts for enhanced imaging and photodynamic therapy” (BOARD OF TRUSTEES OF MICHIGAN STATE UNIVERSITY, priority 2017, dated 2025).

Entries after “also recorded” stand apart in the source; their conditions may differ. Like-named read-outs stand apart in the source and are kept apart here.

One series relates to A549 cells. Description: Viability studies (trypan blue staining and cell counting) with or without IR excitation. The note with it: for Toxicity in words, dark and light: with or without IR (850 nm) excitation; for IC50: linear regression analysis; for Toxicity in the dark, in words: without IR excitation; for Phototoxicity with IR excitation, in words: IR (850 nm) excitation. It counts as cell-based, human. How it is done: The cell lines human lung carcinoma (A549), metastatic human melanoma (WM1158) and Vemurafenib-resistant melanoma (Sk-Mel-28-Vem^R) are used. Sk-Mel-28-Vem^R is generated by culturing a parental melanoma cell lines in the presence of 2 μM Vemurafenib for 2 months. Acquired Vemurafenib resistance is defined by >1 log change in IC50 between nonresistant and resistant cell lines. Resistance is maintained through media supplementation with 2 μM Vemurafenib, which is changed every 48 hours. All cells are cultured in DMEM without pyruvate with 10% heat inactivated fetal bovine serum supplemented with glutamine and penicillin/streptomycin, and incubated in 37° C. with 5% CO2.
A549 and WM1158 cells are seeded at a density of 50,000 cells per well in 6-well tissue culture plates. After 24 hours of incubation, media is aspirated and replaced with media containing luminescent dyes at indicated concentrations. Each well is irradiated with an 850 nm LED lamp with an illumination rate of 526 mW/cm^2 for an hour in the incubator, and control cells are left in a dark incubator without irradiation. For studies with Cy7, a 740 nm LED lamp is used instead of an 850 nm, but with a similar illumination flux. Immediately after irradiation, the media is replenished with fresh dye-laced media and allowed to incubate for another 24 hours. […] Viable cell number is determined at 24 and 96 hours using trypan blue staining and a Nexcelom Cellometer Auto T4 cell counter. All assays are done with 3 biological replicates. The fold change in cell proliferation over days of treatment was calculated using the following equation.

Series [1] can be described thus: Salt integrity and aggregation in cell media (mass spectrometry, electron microscopy, UV-Vis). The note with it: for Integrity of salt pairing in cellular environments: high resolution mass spectrometry, electron microscopy, UV-Vis spectroscopy. It counts as physicochemical. From the text:
FIGS. 7A-7C. […] Organic salts were first dissolved in DMSO and then diluted in water, forming nanoparticles. […] Combinations of H- and J-aggregation of organic salts can be seen by blue-shifted peaks (lower wavelength) and red-shifted peaks (higher wavelength), respectively. The nanoparticles with small hard anions redissolve in cell media likely due to sterics. […] This is achieved by cation-anion pairs of luminescent organic salts that can be modulated to be either non-toxic for enhanced imaging, or phototoxic for improved PDT. […] IR polymethine cyanine dyes, which have been used as effective theranostics are described. […] This is thought to occur through a mechanism mitigated by tumor vascularization, increased retention in cancer cells, and mitochondrial depolarization. Once in the cell, they accumulate in the mitochondria and lysosomes, where irradiation induces generation of cytotoxic oxygen species. A strategy is described for preventing or inhibiting salt dissociation in cells: aggregates are formed via introduction of the salt into an aqueous media by a solvent vehicle, forming particles with diameters of about 5 nm in size with no precipitation observed. […] This is confirmed by high resolution mass spectrometry, electron microscopy, and UV-Vis spectroscopy. […] Normalized absorption data are sown in FIGS. 7A, 7B, and 7C. This is likely due to steric effects, where if the counterion radius is too small it is not able to protect the nanoparticle stability. This can be characterized by the volume-averaged effective spherical radius of the counterions, where the cutoff is at about 0.275 nm.

Another series concerns mitochondrial superoxide. The series can be described thus: MitoSOX measurement of mitochondrial superoxide. In kind it is cell-based, human. The note with it: A549 cells treated 4 days at phototoxic concentrations; with or without light. The source says: FIG. 22. Luminescent organic salts generate mitochondrial ROS. […] MitoSOX is used to measure mitochondrial superoxide, and H2DCFDA for general cytoplasmic ROS in A549 cell treated with organic salts at indicated phototoxic concentrations for 4 days.
Photoactive agents accumulate in the mitochondria of cancer cells and generate reactive oxygen species (ROS) with light exposure, depolarizing the mitochondrial membrane potential to cause cell death. Small molecule protective agents that quench ROS have been used to decrease their phototoxicity. However, the exact type of ROS generated by each luminescent agent remains unclear. Photo-induced ROS include singlet oxygen, superoxide radical anion, hydrogen peroxide, hydroxyl radical and others (see FIG. 21). Superoxide is a highly reactive and biologically toxic species deployed in nature to kill invading organisms. It is often formed as a byproduct of mitochondrial respiration but is typically quenched by the highly efficient superoxide dismutase. Hydroxyl radicals are also highly reactive, damaging nearly all forms of biological molecules. Unlike superoxide radical, the hydroxyl radical cannot be easily quenched naturally via enzymes, and endogenous antioxidants are typically required. Singlet oxygen is the excited state of the common triplet oxygen (O2 ground state) and is highly reactive towards organic compounds. Singlet oxygen can be eliminated in mammalian systems by antioxidants. A range of nitroxy radicals can subsequently stem from superoxide (peroxynitrite) or peroxide (nitrogen dioxide) species. […] Each luminescent cation-anion pair generates specific ROS resonant with its own energy level, and cell types can be targeted by generating the key sensitizing ROS. For example, it is expected that CyFPhB is phototoxic (see FIGS. 11A and 11B and 12A and 12B) by generating reactive oxygen species, which can be resonant with its molecular orbital energy levels (FIG. 21). […] No cytoplasmic ROS is detected using general cytoplasmic ROS probe H2DCFDA. […]

Series [2] can be described thus: Absorption and emission spectra. It counts as physicochemical. How it is done: FIGS. 8A-8F. Non-toxic cation-anion pair enhances live cell IR fluorescence imaging. FIG. 8A is a graph showing tunable organic salts absorb and emit in the IR (700-1200 nm) and eliminate background noise from absorbance/emission tissue components such as melanin, water, oxyhemoglobin (Hb-O2) and hemoglobin (Hb). […] A549 cells were incubated with vehicle, 1 μM CyPF6, or 1 μM CyTPFB with or without IR (850 nm) excitation. Cell viability determined by trypan blue staining and cell counting. (D) CyTPFB staining in A549 cells. (E) DNA staining using 4',6-diamidino-2-phenylindole (DAPI). (F) Superimposed CyTPFB+DAPI staining. Effective fluorescence dyes must be non-toxic for live cell imaging. […] Further developed are luminescent dyes that absorb and emit in the optical tissue window for imaging without background absorption/emission from components of tissue such as water, hemoglobin, and melanin, as shown in FIG. 8A. Heptamethine cyanine (Cy^+) is a photoactive cation that absorbs and emits in IR wavelengths, with an excitation/emission maximum of 830/848 nm, as shown in FIG. 8B. The deeper excitation and emission of Cy^+ provide an advantage over Cy7 (excitation/emission maximum of 750/773 nm), allowing imaging at greater tissue depths. […] Imaging live cells with these toxic cation-anion pairs requires usage of low doses that result in low absorbance and emission, resulting in poor quality images. […] CyTPFB is non-toxic to cells even at greater than 20-fold higher concentrations of 20 μM. The non-toxic nature of CyTPBF allows use of high doses in eukaryotic and prokaryotic cells for enhanced IR imaging with greater brightness, as shown in FIGS. 8D-8F for a eukaryotic cell example.

Where [3] appears, read: A549 cells, 850 nm irradiation, read-out: IC50 850 nm.
Setting [4] is: A549 cells, dark, no irradiation, read-out: IC50 Dark.

As for `[I-].[K+]` [KI, reference compound], the “Toxicity in words, dark and light” value in the series with A549 cells (A549 cells) is “not toxic; also recorded: does not cause toxicity in the dark or with light”.

In the case of `CCN1C(=CC=C2CCCC(C=CC3=[N+](CC)c4ccc5ccccc5c4C3(C)C)=C2Cl)C(C)(C)c2c1ccc1ccccc21.Clc1c(Cl)c(Cl)c2c(c1Cl)O[P-]13(O2)(Oc2c(Cl)c(Cl)c(Cl)c(Cl)c2O1)Oc1c(Cl)c(Cl)c(Cl)c(Cl)c1O3` [CyTRIS], in the series with A549 cells (setting [3]), the IC50 worked out at 1200 µM. Also, the IC50 in the series on A549 cells (setting [4]) is 1220 µM. Further, in the series with A549 cells (A549 cells), the “Toxicity in words, dark and light” value was “not toxic to cells in the dark and in the light”; the “Toxicity in the dark, in words” value is “deactivates the dark cellular toxicity”. For the same compound, the “Integrity of salt pairing in cellular environments” value (“Integrity of salt pairing” below) in series [1] is “maintained in cellular environments”.

In the case of `CCN1C(=CC=C2CCCC(C=CC3=[N+](CC)c4ccc5ccccc5c4C3(C)C)=C2Cl)C(C)(C)c2c1ccc1ccccc21.Fc1ccc([B-](c2ccc(F)cc2)(c2ccc(F)cc2)c2ccc(F)cc2)cc1` [CyFPhB], the IC50 with A549 cells (setting [3]) is 3.5 µM; with A549 cells (setting [4]) it was 46 µM. The “Phototoxicity with IR excitation, in words” value with A549 cells (A549 cells) is “most phototoxic; also recorded: cause significant cell death with IR excitation; also recorded: highly phototoxic”; in the series with A549 cells (A549 cells, listed as Cy^+ paired with FPhB), “phototoxic”. Besides, the “Toxicity in words, dark and light” value in the series on A549 cells (A549 cells) is “phototoxic but not cytotoxic; also recorded: phototoxic (but not cytotoxic)”. Moreover, the “Toxicity in the dark, in words” value in the series with A549 cells (A549 cells) is given as “allow cell growth in the dark”; with A549 cells (A549 cells, listed as Cy^+ paired with FPhB^−), “deactivates the dark cellular toxicity”. In addition, the “Mitochondrial superoxide / ROS generation (MitoSOX), in words” value with mitochondrial superoxide is “photo-generating ROS only with illumination; also recorded: photo-generating superoxide only with illumination”. Also, the “Aggregation / nanoparticle behaviour in cell media, in words” value in series [1] (cell media) is reported as “forms small photoactive nanoparticles in cell media”. Moreover, the “Average nanoparticle size in cell media” value in series [1] (cell media) is given as below 10 nm. For the same compound, the “Integrity of salt pairing” value in series [1] is given as “maintained in cellular environments”.

For `CCN1C(=CC=C2CCCC(C=CC3=[N+](CC)c4ccc5ccccc5c4C3(C)C)=C2Cl)C(C)(C)c2c1ccc1ccccc21` [Cy^+, 2-[2-[2-chloro-3-[2-(1,3-dihydro-3,3-dimethyl-1-ethyl-2H-benz[e]indol-2-ylidene)ethylidene]-1-cylohexen-1-yl]-ethenyl]-3,3-dimethyl-1-ethyl-1H-benz[e]indolium], in series [2], the Emission maximum is on record as 848 nm and the Excitation maximum is reported as 830 nm.

`C[N+]1=C(C=CC2=CC(=CC=C3N(CCCCCC(=O)ON4C(=O)CCC4=O)c4ccccc4C3(C)C)CCC2)C(C)(C)c2ccccc21.[Cl-]` [Cy7, Cyanine7 NHS ester, reference compound]: in the series with A549 cells (A549 cells, with or without IR (740 nm) excitation), the “Toxicity of Cy7 salts, in words” value is reported as “highly cytotoxic”. In addition, in the series with A549 cells (cells, toxic at low concentration, even without IR light), the “Concentration at which cytotoxic” value came out at 1 µM. In addition, in series [2], the Emission maximum turned out to be 773 nm and the Excitation maximum is recorded as 750 nm.

For `CCN1C(=CC=C2CCCC(C=CC3=[N+](CC)c4ccc5ccccc5c4C3(C)C)=C2Cl)C(C)(C)c2c1ccc1ccccc21.FC(F)(F)c1cc([B-](c2cc(C(F)(F)F)cc(C(F)(F)F)c2)(c2cc(C(F)(F)F)cc(C(F)(F)F)c2)c2cc(C(F)(F)F)cc(C(F)(F)F)c2)cc(C(F)(F)F)c1` [CyTFM], the IC50 with A549 cells (setting [3]) came to 29 µM. Also, the IC50 with A549 cells (setting [4]) was determined as 125 µM. In the series on A549 cells (A549 cells), the “Toxicity in words, dark and light” value is “not toxic to cells in the dark and in the light”; the “Toxicity in the dark, in words” value is on record as “deactivates the dark cellular toxicity”. The “Integrity of salt pairing” value in series [1] is given as “maintained in cellular environments”.
